Laboratory results taken from PubChem BioAssay (NCI).
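Cells were grown in 96-well plates and exposed to each compound for 48 hours at five concentrations; endpoints were interpolated linearly between bracketing concentrations, or set to the highest concentration if not reached. The concentration for full growth arrest is given as TGI.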

How the values were obtained:
Experiment in all cases: NCI-60 cell line screen, 48 h
CAKI-1 renal = test system: CAKI-1 renal
COLO 205 colon = test system: COLO 205 colon
HCT-116 colon = test system: HCT-116 colon
HCT-15 colon = test system: HCT-15 colon
HL-60(TB) leukemia = test system: HL-60(TB) leukemia
HOP-92 NSCLC = test system: HOP-92 NSCLC
IGROV1 ovarian = test system: IGROV1 ovarian
NCI-H460 lung = test system: NCI-H460 lung
OVCAR-3 ovarian = test system: OVCAR-3 ovarian
OVCAR-4 ovarian = test system: OVCAR-4 ovarian
SF-295 CNS = test system: SF-295 CNS
SNB-75 CNS = test system: SNB-75 CNS
ACHN renal = test system: ACHN renal
BT-549 breast = test system: BT-549 breast
DU-145 prostate = test system: DU-145 prostate
HS 578T breast = test system: HS 578T breast
MDA-MB-435 = test system: MDA-MB-435
MDA-N = test system: MDA-N
SR leukemia = test system: SR leukemia
TK-10 renal = test system: TK-10 renal

Molecule `CCC1=CC2CN3CCc4c([nH]c5ccccc45)C(C(=O)OC)(C2)C13` (configuration not stated) has a TGI (CAKI-1 renal) of 46.5 µM, a TGI (COLO 205 colon) of 80.6 µM and a TGI (HCT-116 colon) of 71 µM. For the same molecule, the TGI (HCT-15 colon) was 90.8 µM, the TGI (HL-60(TB) leukemia) was 125 µM and the TGI (HOP-92 NSCLC) was 33.9 µM. It also gave a TGI (IGROV1 ovarian) of 105 µM, a TGI (NCI-H460 lung) of 102 µM and a TGI (OVCAR-3 ovarian) of 107 µM. For the same molecule, the TGI (OVCAR-4 ovarian) was 75.3 µM, the TGI (SF-295 CNS) was 90.1 µM and the TGI (SNB-75 CNS) was 89.9 µM.
`Cc1cc(C)nc(NS(=O)(=O)c2ccc(Nc3c4ccccc4nc4c(C(=O)NCCCN(CCO)CCO)cccc34)cc2)n1` was tested, and the TGI (ACHN renal) was greater than 100 µM, the TGI (BT-549 breast) was 27.6 µM and the TGI (CAKI-1 renal) was greater than 100 µM. The TGI (COLO 205 colon) was 34.3 µM, the TGI (DU-145 prostate) was greater than 100 µM and the TGI (HCT-15 colon) was greater than 100 µM. The TGI (HL-60(TB) leukemia) was 38.6 µM, the TGI (HOP-92 NSCLC) was greater than 100 µM and the TGI (HS 578T breast) was 65.5 µM. It also gave a TGI (IGROV1 ovarian) greater than 100 µM, a TGI (MDA-MB-435) of 40.6 µM and a TGI (MDA-N) of 83.7 µM. For the same molecule, the TGI (NCI-H460 lung) was 44 µM, the TGI (OVCAR-3 ovarian) was greater than 100 µM and the TGI (OVCAR-4 ovarian) was greater than 100 µM. It also gave a TGI (SF-295 CNS) greater than 100 µM, a TGI (SNB-75 CNS) of 23.1 µM and a TGI (SR leukemia) greater than 100 µM. For the same molecule, the TGI (TK-10 renal) was greater than 100 µM.
Molecule `CN1C2CC(=O)CC1[C@H](O)[C@@H]2O` has a TGI (BT-549 breast) greater than 100 µM, a TGI (COLO 205 colon) greater than 100 µM and a TGI (DU-145 prostate) greater than 100 µM. It also gave a TGI (HCT-116 colon) greater than 100 µM, a TGI (HCT-15 colon) greater than 100 µM and a TGI (HL-60(TB) leukemia) greater than 100 µM. It also gave a TGI (MDA-MB-435) greater than 100 µM, a TGI (MDA-N) greater than 100 µM and a TGI (NCI-H460 lung) greater than 100 µM. It also gave a TGI (OVCAR-3 ovarian) greater than 100 µM, a TGI (SF-295 CNS) greater than 100 µM and a TGI (SR leukemia) greater than 100 µM. The TGI (TK-10 renal) was greater than 100 µM.
For `CC1(C23CC4CC(CC(C4)C2)C3)n2c(=O)n(-c3ccccc3)c(=O)n2C1(C)C12CC3CC(CC(C3)C1)C2` (configuration not stated), the TGI (ACHN renal) was greater than 100 µM, the TGI (BT-549 breast) was greater than 100 µM and the TGI (CAKI-1 renal) was greater than 100 µM. The TGI (COLO 205 colon) was greater than 100 µM, the TGI (DU-145 prostate) was greater than 100 µM and the TGI (HCT-15 colon) was greater than 100 µM. It also gave a TGI (HL-60(TB) leukemia) greater than 100 µM, a TGI (HOP-92 NSCLC) greater than 100 µM and a TGI (HS 578T breast) greater than 100 µM. The TGI (IGROV1 ovarian) was greater than 100 µM, the TGI (MDA-MB-435) was greater than 100 µM and the TGI (MDA-N) was greater than 100 µM. For the same molecule, the TGI (NCI-H460 lung) was greater than 100 µM, the TGI (OVCAR-3 ovarian) was greater than 100 µM and the TGI (SF-295 CNS) was greater than 100 µM. For the same molecule, the TGI (SNB-75 CNS) was greater than 100 µM, the TGI (SR leukemia) was greater than 100 µM and the TGI (TK-10 renal) was greater than 100 µM.
In the case of `Cc1[nH]c(=O)nc(N/N=C/c2ccc(Cl)cc2)c1C(=O)NC(C)(CO)CO`, the TGI (ACHN renal) is reported as greater than 100 µM, the TGI (BT-549 breast) is reported as greater than 100 µM and the TGI (CAKI-1 renal) is reported as greater than 100 µM. It also gave a TGI (COLO 205 colon) greater than 100 µM, a TGI (DU-145 prostate) greater than 100 µM and a TGI (HCT-116 colon) greater than 100 µM. The TGI (HCT-15 colon) was greater than 100 µM, the TGI (HL-60(TB) leukemia) was greater than 100 µM and the TGI (HOP-92 NSCLC) was greater than 100 µM. The TGI (HS 578T breast) was greater than 100 µM, the TGI (IGROV1 ovarian) was greater than 100 µM and the TGI (MDA-MB-435) was greater than 100 µM. For the same molecule, the TGI (MDA-N) was greater than 100 µM, the TGI (NCI-H460 lung) was greater than 100 µM and the TGI (OVCAR-3 ovarian) was greater than 100 µM. It also gave a TGI (OVCAR-4 ovarian) greater than 100 µM, a TGI (SF-295 CNS) greater than 100 µM and a TGI (SNB-75 CNS) greater than 100 µM. For the same molecule, the TGI (SR leukemia) was greater than 100 µM and the TGI (TK-10 renal) was greater than 100 µM.
